In the supplement of paper PMC5844555:

Tests used:
Test in all cases: 3' UTR reporter interaction score (median-centred robust z-score of log2 firefly/Renilla activity); higher = less repression of the 3' UTR reporter
Conditions in all cases: HEK293T; 48 h
MYCN = tested on: MYCN
How it was run: (§1)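 The interaction score is based on the log-transformed firefly/Renilla luciferase ratio, scaled as a robust z-score within each plate by median and median absolute deviation and median-centred for each miRNA; more negative scores indicate interaction. It was averaged over at least two independent screens. Readings were taken 48 h after HEK293T cells (10,000/well, 96-well plates) were co-transfected by DharmaFECT Duo with 100 ng firefly luc2P 3' UTR reporter, 20 ng Renilla pRL-TK and 2.5 pmol miRNA mimic.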

TP53 = tested on: TP53
How it was run: as §1

HRAS = tested on: HRAS
How it was run: as §1

MYC = tested on: MYC
How it was run: as §1

EZH2 = tested on: EZH2
How it was run: as §1

ZEB2 = tested on: ZEB2
How it was run: as §1

NOTCH1 = tested on: NOTCH1
How it was run: as §1

BRCA2 = tested on: BRCA2
How it was run: as §1

RB1 = tested on: RB1
How it was run: as §1

PHOX2B = tested on: PHOX2B
How it was run: as §1

PHF6 = tested on: PHF6
How it was run: as §1

MYB = tested on: MYB
How it was run: as §1

MYT1L = tested on: MYT1L
How it was run: as §1

FBXW7 = tested on: FBXW7
How it was run: as §1

Sequence	3' UTR reporter interaction score (MYCN)	3' UTR reporter interaction score (TP53)	3' UTR reporter interaction score (HRAS)	3' UTR reporter interaction score (MYC)	3' UTR reporter interaction score (EZH2)	3' UTR reporter interaction score (ZEB2)	3' UTR reporter interaction score (NOTCH1)	3' UTR reporter interaction score (BRCA2)	3' UTR reporter interaction score (RB1)	3' UTR reporter interaction score (PHOX2B)	3' UTR reporter interaction score (PHF6)	3' UTR reporter interaction score (MYB)	3' UTR reporter interaction score (MYT1L)	3' UTR reporter interaction score (FBXW7)
GCUGCGCUUGGAUUUCGUCCCC	0.248	-0.861	-0.573	0.388	-0.09	0.715	2.01	-0.029	1.16	-1.97	0.794	0.616	0.46	-0.688
UGUGCAAAUCUAUGCAAAACUGA	-2.74	0.088	-1.18	-0.0223	-0.0175	-1.34	-0.179	-0.799	0.548	0.393	0.299	-0.797	0.342	0.679
AAACAAACAUGGUGCACUUCUUU	0.437	-0.293	-0.444	0.601	1.82	-0.365	0.581	-0.147	1.09	0.00827	-1.41	0.209	-1.89	-0.367
UGAGCUAAAUGUGUGCUGGGA	0.0799	0.237	-0.575	-0.176	0.105	0.263	-0.446	-0.453	-0.0745	0.175	-0.0551	0.373	1.13	-0.406
AUCAUGAUGGGCUCCUCGGUGU	-1.14	0.202	0.527	-1.04	-0.332	0.672	-2.44	-0.103	0.226	-0.574	0.0291	0.47	1.53	-2.53
GGAGAAAUUAUCCUUGGUGUGU	-0.523	0.00656	-0.545	-1.2	-0.15	-0.311	0.146	-0.364	0.166	1.16	0.937	-0.159	0.261	0.978
CUCUUGAGGGAAGCACUUUCUGUU	0.894	0.305	-0.664	-0.277	1.02	-0.69	-0.119	0.199	-0.331	-0.0184	-2.75	1.52	0.407	1.21
AAAGUGCUUCCUUUUUGAGGG	-0.0937	0.0321	-0.00896	0.0093	-0.296	0.44	0.985	0.142	1.02	1.32	-0.0231	-0.87	-0.441	0.747
UAUUGCACUCGUCCCGGCCUC	1.3	-0.261	-0.467	0.586	-0.851	-1.97	-1.13	0.27	0.116	1.55	0.726	0.69	-1.11	-2.89
AACGCGCUUCCCUAUAGAGGG	-1.41	1.12	-1.1	-0.143	1.38	-0.982	0.382	0.644	0.667	-0.021	0.0798	-0.83	-0.267	0.0883
UGGAAGACUAGUGAUUUUGUUG	0.44	-1.48	0.856	-0.317	0.509	-0.874	-0.0478	-0.32	0.176	0.182	0.207	0.454	-1.31	-0.892
GCAAAGCACACGGCCUGCAGAGA	-0.217	-0.0423	-0.313	0.499	0.138	0.307	0.357	0.0737	-1.65	-0.597	1.65	1.11	-0.692	0.141
UGAAGGUCUACUGUGUGCCAG	0.394	1.34	-0.000203	-0.0308	0.277	0.194	-0.37	-0.173	-1.18	0.626	-1.33	0.992	-2.06	0.56
ACUGCAGUGAAGGCACUUGU	0.762	-0.642	0.389	0.291	-0.638	-0.791	0.45	0.0527	-0.0483	-0.6	-0.789	0.157	-0.459	-0.112
GUGCCGCCAUCUUUUGAGUGU	0.415	0.183	-0.278	1.02	1.03	-1.72	-0.278	-0.313	0.47	-0.654	1.8	0.102	-0.378	-3.5
AAAGCGCUUCUCUUUAGAGGA	-0.629	-0.0242	0.681	-0.0856	-0.591	0.196	0.581	-0.521	-0.785	0.331	-0.164	-0.0819	-0.414	0.112
UCAAGAGCAAUAACGAAAAAUGU	-0.782	0.338	-0.0915	-0.189	-0.0128	0.703	0.351	0.701	-2.16	-0.662	0.162	-0.127	-2.38	0.698
AGUAUUCUGUACCAGGGAAGGU	0.786	0.107	-0.0345	0.255	-2.56	-1.77	0.758	0.623	-0.386	0.0656	-1.2	-0.25	-1.07	1.75
UGUAAACAUCCCCGACUGGAAG	-1	-0.339	0.945	-0.345	0.0787	-1.09	-0.121	-0.00428	1.18	0.775	0.331	0.447	0.873	0.0307

Sequence	3' UTR reporter interaction score (MYCN)	3' UTR reporter interaction score (TP53)	3' UTR reporter interaction score (HRAS)	3' UTR reporter interaction score (MYC)	3' UTR reporter interaction score (EZH2)	3' UTR reporter interaction score (ZEB2)	3' UTR reporter interaction score (NOTCH1)	3' UTR reporter interaction score (BRCA2)	3' UTR reporter interaction score (RB1)	3' UTR reporter interaction score (PHOX2B)	3' UTR reporter interaction score (PHF6)	3' UTR reporter interaction score (MYB)	3' UTR reporter interaction score (MYT1L)	3' UTR reporter interaction score (FBXW7)
UAUGUGCCUUUGGACUACAUCG	0	-0.404	-0.0556	0.403	-0.568	0.0793	0.00167	-1.13	0.319	-3.33	0.707	0.663	-1.09	0.444
AAUGGCGCCACUAGGGUUGUGCA	0.439	-0.436	-0.363	-0.44	-0.534	0.407	-0.589	-0.437	-0.957	1.04	0.0523	0.208	-0.00801	-0.576
AUUCUGCAUUUUUAGCAAGU	1.34	0.643	0.548	1.31	0.847	-0.209	-2.14	-0.0751	0.0642	-0.262	0.263	1.56	-2.22	-2.1
UGAGGUAGUAAGUUGUAUUGUU	-4.78	-0.165	0.519	-2.7	-3.5	0.389	0.263	0.117	0.186	-0.47	-0.107	0.37	0.292	0.412
CAGUAACAAAGAUUCAUCCUUGU	1.32	-0.52	0.555	-0.308	0.69	0.308	-0.945	-0.621	-3.18	-1.19	-3.72	0.361	-0.326	-0.152
UGUCUUGCAGGCCGUCAUGCA	-0.456	-1.21	1.07	0.266	-0.168	-2.19	0.776	-0.496	1.34	0.814	-0.169	-0.711	0.257	0.883
AACCAGCACCCCAACUUUGGAC	0.781	0.244	0.0381	0.864	1.33	1.09	-0.388	-0.175	-1.29	-0.923	-2.04	-1.09	0.0434	-7.19
UGAGGUAGUAGAUUGUAUAGUU	-4.33	-0.262	0.942	-2.66	-5.6	-0.843	-0.987	0.246	0.338	0.189	0.283	0.461	0.00725	0.329
CAAAGUGCCUCCCUUUAGAGUGU	0.839	0.418	0.317	-0.351	-0.27	-0.0865	0.00359	0.407	-0.937	0.0452	0.15	0.155	-0.343	0.81
CUUUUUGCGGUCUGGGCUUGC	0.522	-0.0822	0.493	0.829	0.547	-2.61	-0.155	-0.285	-0.184	-0.0143	-1.29	0.803	1.18	-2.11
CUGGAUGGCUCCUCCAUGUCU	1.88	0.127	-0.334	-0.501	-1.36	0.281	0.182	-1.72	-2.12	1.08	1.87	0.532	-0.148	0.945
AAAGUGCUUCCUUUUAGAGGG	-0.401	0.0995	0.261	0.194	-1.28	0.554	1.06	-0.12	0.0746	1.35	0.188	-0.541	-0.373	0.755
UGACAACUAUGGAUGAGCUCU	0.478	0.025	-0.056	0.174	0.197	0.125	-0.339	-0.499	-2.61	-0.766	-0.469	0.977	0.836	0.175
AACACACCUGGUUAACCUCUUU	1.21	0.317	0.473	-0.499	0.419	0.382	-1.72	0.0379	-0.572	0.138	-2.01	-0.0237	0.591	-0.274
UCUCUGGAGGGAAGCACUUUCUG	-0.393	0.306	-0.075	0.317	1.18	-2.97	-2.09	1.47	-0.609	-0.501	1.92	-1.99	-1.64	0.444
AAAGUGCAUCUUUUUAGAGGAU	1.77	1.24	0.493	0.685	-0.581	-0.325	0.996	-0.243	-0.176	0.606	-0.0249	-2.04	-0.436	0.857
UGUUUGCAGAGGAAACUGAGAC	0.322	-0.173	1.34	0.778	0.739	-1.2	-0.933	-0.0179	-0.175	-0.484	-0.0326	1.43	-0.13	-1.52
UGAGAACUGAAUUCCAUAGGCU	0.165	-0.401	-0.193	0.179	0.351	0.486	-0.287	-1.45	-0.182	-0.835	0.668	0.897	0.753	-1.39
AGUGACAUCACAUAUACGGCAGC	0.321	-0.15	-0.649	-0.366	-0.788	1.55	0.273	-1.13	0.945	0.805	0.28	0.233	0.969	-1.31
